The source of these data is ChEMBL document CHEMBL1141087, “Differential response of estrogen receptor subtypes to 1,3-diarylindene and 2,3-diarylindene ligands” (J Med Chem, 2005).

pEC50, pKi: −log10 of the molar value.

The first test deals with T1, Estrogen receptor beta (Homo sapiens, UniProt Q92731).
T1 sequence (Q92731 whole entry): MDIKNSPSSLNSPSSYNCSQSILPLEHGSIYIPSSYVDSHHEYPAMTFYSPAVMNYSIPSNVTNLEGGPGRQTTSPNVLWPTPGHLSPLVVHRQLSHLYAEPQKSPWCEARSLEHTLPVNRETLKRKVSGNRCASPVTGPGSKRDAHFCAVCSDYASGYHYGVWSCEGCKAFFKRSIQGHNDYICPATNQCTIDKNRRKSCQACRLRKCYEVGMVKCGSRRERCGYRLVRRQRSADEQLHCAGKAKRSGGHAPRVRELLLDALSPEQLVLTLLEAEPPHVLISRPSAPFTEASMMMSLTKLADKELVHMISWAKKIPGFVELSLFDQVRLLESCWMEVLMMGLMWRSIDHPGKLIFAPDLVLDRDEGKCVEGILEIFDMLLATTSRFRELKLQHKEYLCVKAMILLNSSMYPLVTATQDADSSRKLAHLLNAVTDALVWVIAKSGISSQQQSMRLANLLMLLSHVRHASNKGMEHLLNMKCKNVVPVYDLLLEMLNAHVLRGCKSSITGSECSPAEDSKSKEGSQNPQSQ
Take `Nc1ccc(C2=C(c3ccc(O)cc3)Cc3cc(O)ccc32)cc1`: the negative logarithm of the Ki (pKi) was 8.66.
Still for that read-out and setting: the result for `Oc1ccc(C2=C(c3ccc(CBr)cc3)c3ccc(O)cc3C2)cc1` reads 7.82; that for `CCC1=C(c2ccc(O)cc2)C(C(=O)Nc2ccc(OCCN3CCCCC3)cc2)c2cc(O)ccc21` (stereo not drawn), 6.83.
Same read-out and setting: the result for `O=C(O)c1ccc(C2=C(c3ccc(O)cc3)Cc3cc(O)ccc32)cc1` reads 6.38; that for `Oc1ccc(C2=C(c3ccc(C(F)(F)F)cc3)c3ccc(O)cc3C2)cc1`, 9.04; that for `Cc1ccc(C2=C(c3ccc(O)cc3)Cc3cc(O)ccc32)cc1`, 8.89.
On the same count and under the same terms, the result for `Oc1ccc(C2=C(c3ccc(F)cc3)c3ccc(O)cc3C2)cc1` reads 8.55.
Compound `Oc1ccc(C2=C(c3ccc(OCCN4CCCCC4)cc3)c3ccc(O)cc3C2)cc1` had a negative-log Ki (pKi) of 9.72. Compared with the last compound, the pKi is 1.17 log units higher.
The same measure, in the same setting: the result for `CC(=O)c1ccc(C2=C(c3ccc(O)cc3)Cc3cc(O)ccc32)cc1` reads 8.42; that for `Oc1ccc(C2=C(c3ccc(O)cc3)c3ccc(O)cc3C2)cc1`, 8.89.
On the same count and under the same terms, as for `Oc1ccc(C2=C(c3ccc(Cl)cc3)c3ccc(O)cc3C2)cc1`, the figure is 9.31; as for `NC(=O)c1ccc(C2=C(c3ccc(O)cc3)Cc3cc(O)ccc32)cc1`, 9.34.

In another test the target is T1, Estrogen receptor beta. This is another data set of the same source.
Description: Transcriptional activation of estrogen receptor beta in U2OS cell using estrogen-regulated luciferase reporter gene plasmid upon incubation for 20-30 mins at RT
As to `CCC1=C(c2ccc(O)cc2)C(C(=O)Nc2ccc(OCCN(C)C)cc2)c2cc(O)ccc21` (stereo not drawn), the pEC50 is 6.29.
Still for that read-out and setting: the result for `Oc1ccc(C2=C(Cc3ccccc3)c3ccc(O)cc3C2)cc1` reads 7.43.
Still for that read-out and setting: the result for `CCC1=C(c2ccc(O)cc2)C(C(=O)O)c2cc(O)ccc21` (stereo not drawn) reads 7.28.
On the same count and under the same terms, as for `CCC1=C(c2ccc(O)cc2)Cc2cc(O)ccc21`, the figure is 9.52; as for `CCC1=C(c2ccc(O)cc2)C(CC)c2cc(O)ccc21` (stereo not drawn), 9.52.
For the compound `Oc1ccc(C2=C(c3ccc(F)cc3)c3ccc(O)cc3C2)cc1`, the pEC50 was 8.00.
Same read-out and setting: as for `Oc1ccc(C2=C(c3ccccc3)c3ccc(O)cc3C2)cc1`, the figure is 7.27.

Another test concerns the target T2, Estrogen receptor (Homo sapiens, UniProt P03372).
T2 sequence (P03372 whole entry): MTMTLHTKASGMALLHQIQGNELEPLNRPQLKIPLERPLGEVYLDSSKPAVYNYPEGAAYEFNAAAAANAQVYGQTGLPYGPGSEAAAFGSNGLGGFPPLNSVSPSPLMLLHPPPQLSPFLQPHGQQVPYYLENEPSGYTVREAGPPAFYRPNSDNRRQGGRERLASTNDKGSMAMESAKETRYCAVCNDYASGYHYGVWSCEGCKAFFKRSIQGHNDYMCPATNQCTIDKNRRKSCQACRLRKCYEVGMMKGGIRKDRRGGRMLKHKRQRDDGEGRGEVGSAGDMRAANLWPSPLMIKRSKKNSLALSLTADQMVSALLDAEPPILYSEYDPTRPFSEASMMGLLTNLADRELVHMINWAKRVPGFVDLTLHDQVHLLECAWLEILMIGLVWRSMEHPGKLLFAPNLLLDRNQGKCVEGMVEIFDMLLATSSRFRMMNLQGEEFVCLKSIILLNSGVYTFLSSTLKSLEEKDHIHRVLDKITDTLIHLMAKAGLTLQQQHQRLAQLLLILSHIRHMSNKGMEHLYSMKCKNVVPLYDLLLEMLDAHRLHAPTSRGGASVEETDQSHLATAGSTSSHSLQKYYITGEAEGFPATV
Description: Transcriptional activation of estrogen receptor alpha in U2OS cell using estrogen-regulated luciferase reporter gene plasmid upon incubation for 20-30 mins at RT
The compound `Nc1ccc(C2=C(c3ccc(O)cc3)Cc3cc(O)ccc32)cc1` showed a negative logarithm of the EC50 (pEC50) of 8.17.
On the same count and under the same terms, the result for `Oc1ccc(C2=C(c3ccc(CBr)cc3)c3ccc(O)cc3C2)cc1` reads 6.96; that for `CCC1=C(c2ccc(O)cc2)C(C(=O)Nc2ccc(OCCN(C)C)cc2)c2cc(O)ccc21` (stereo not drawn), 6.82.
On to `Oc1ccc(C2=C(Cc3ccccc3)c3ccc(O)cc3C2)cc1`, for which the negative-log EC50 (pEC50) was 7.85.
The compound `CCC1=C(c2ccc(O)cc2)C(C(=O)Nc2ccc(OCCN3CCCCC3)cc2)c2cc(O)ccc21` (stereo not drawn) showed a pEC50 of 7.00.
Same read-out and setting: as for `CCC1=C(c2ccc(O)cc2)C(C(=O)O)c2cc(O)ccc21` (stereo not drawn), the figure is 6.80; as for `Oc1ccc(C2=C(c3ccc(C(F)(F)F)cc3)c3ccc(O)cc3C2)cc1`, 7.82; as for `CCC1=C(c2ccc(O)cc2)Cc2cc(O)ccc21`, 9.51.
Still for that read-out and setting: as for `CCC1=C(c2ccc(O)cc2)C(CC)c2cc(O)ccc21` (stereo not drawn), the figure is 10.23; as for `Cc1ccc(C2=C(c3ccc(O)cc3)Cc3cc(O)ccc32)cc1`, 7.77; as for `CCC1=C(c2ccc(O)cc2)C(C(=O)Nc2ccc(O)cc2)c2cc(O)ccc21` (stereo not drawn), 6.37.
Compound `Oc1ccc(C2=C(c3ccc(F)cc3)c3ccc(O)cc3C2)cc1` gave a pEC50 of 8.41.
On the same count and under the same terms, the result for `Oc1ccc(C2=C(c3ccc(O)cc3)c3ccc(O)cc3C2)cc1` reads 8.15; that for `Oc1ccc(C2=C(c3ccccc3)c3ccc(O)cc3C2)cc1`, 8.37; that for `Oc1ccc(C2=C(c3ccc(Cl)cc3)c3ccc(O)cc3C2)cc1`, 7.77.

The target in another test is T2, Estrogen receptor. The source holds these as a separate data set.
In turn, `Nc1ccc(C2=C(c3ccc(O)cc3)Cc3cc(O)ccc32)cc1` showed a pKi of 9.17.
On the same count and under the same terms, the result for `Oc1ccc(C2=C(c3ccc(CBr)cc3)c3ccc(O)cc3C2)cc1` reads 7.23; that for `CCC1=C(c2ccc(O)cc2)C(C(=O)Nc2ccc(OCCN3CCCCC3)cc2)c2cc(O)ccc21` (stereo not drawn), 6.74.
Same read-out and setting: as for `Oc1ccc(C2=C(c3ccc(C(F)(F)F)cc3)c3ccc(O)cc3C2)cc1`, the figure is 8.68; as for `Oc1ccc(C2=C(c3ccc(OCCN4CCCCC4)cc3)c3ccc(O)cc3C2)cc1`, 8.77; as for `CC(=O)c1ccc(C2=C(c3ccc(O)cc3)Cc3cc(O)ccc32)cc1`, 8.14.
Same read-out and setting: the result for `Oc1ccc(C2=C(c3ccc(O)cc3)c3ccc(O)cc3C2)cc1` reads 8.07; that for `Oc1ccc(C2=C(c3ccc(Cl)cc3)c3ccc(O)cc3C2)cc1`, 7.62.
With `NC(=O)c1ccc(C2=C(c3ccc(O)cc3)Cc3cc(O)ccc32)cc1`, the pKi was 8.38.
